The record followed here is patent US10745399B2 (priority 2015, dated 2020).

The structures appear in SMILES notation. A value given as a limit tells only on which side of the number the result lay.

The test system of this assay is CHK2 phosphorylation (phospho-Thr68) in HCT116 cells. Kind of assay: Cellular pCHK2 assay, bleomycin-induced phosphorylation of CHK2 (phospho-Thr68), immunofluorescence high content. The format is cell-based. As to conditions: Homo sapiens, HCT-116; HCT116 cells, 10 μM bleomycin, 4 h; read-out: IC50 (pCHK2). From the text: For the identification of substances which inhibit the phosphorylation of the protein kinase CHK2 at the amino acid threonine 68, an immunofluorescence-based “high content” analysis assay was used in HCT116 cells.
In vitro cell-based immunofluorescence assay for the identification of inhibitors of bleomycin-induced phosphorylation of CHK2 (phospho-Thr68) in the human colon carcinoma cell line HCT116:
HCT116 cells are sown out in a defined cell density in 384-well plates in culture medium (DMEM high glucose, 2 mM GlutaMax, 1 mM Na pyruvate, 10% FCS) and incubated overnight at 37° C. and 10% of CO2. On the following day, the test substances are added in a defined concentration range (1 nM to 30 μM) in combination with 10 μM bleomycin, where the concentration of the solvent DMSO is kept constant at 0.5%. After incubation for four hours at 37° C. and 10% of CO2, the cells are fixed (5 min, 4% formaldehyde in PBS), permeabilised (10 min, 0.2% Triton X-100 in PBS) and, after blocking of nonspecific binding sites (10% goat serum, 1% BSA in PBS), incubated overnight at 4° C. with a specific anti-pCHK2 antibody (cell signalling #2661). pCHK2 (Thr68) is determined using an Alexa488-labelled secondary anti-rabbit IgG antibody. Parallel staining of DNA with propidium iodide enables determination of the cell count. The pCHK2 signal is detected using a high-content imager (Molecular Devices IMX Ultra) and automatic image analysis using the MetaXpress software belonging to the instrument. The number of cell nuclei which have a pCHK2 signal above a defined background is determined.
By IC50 is commonly meant the concentration that inhibits the measured activity by half. `COc1cc2ncc3c(c2cc1-c1cnn(C)c1)n(-c1ncccn1)c(=O)n3C` [Compound Example 52, 7-Methoxy-3-methyl-8-(1-methyl-1H-pyrazol-4-yl)-1-pyrimidin-2-yl-1,3-dihydro-imidazo[4,5-c]quinolin-2-one]: the IC50 lay within 200 to 1000 nM.
Regarding `CCn1cc(-c2cc3c(cc2OC)ncc2c3n(-c3ccncc3OC)c(=O)n2C)cn1` [compound 104, 8-(1-Ethyl-1H-pyrazol-4-yl)-7-methoxy-1-(3-methoxy-pyridin-4-yl)-3-methyl-1,3-dihydroimidazo[4,5-c] quinolin-2-one], the IC50 lay in the range of 200 to 1000 nM.
As for `COc1cc2ncc3c(c2cc1-c1cn(C)nn1)n(-c1c(F)cncc1OC)c(=O)n3C` [compound 131, 1-(3-Fluoro-5-methoxy-pyridin-4-yl)-7-methoxy-3-methyl-8-(1-methyl-1H-1,2,3-triazol-4-yl)-1,3-dihydroimidazo[4,5-c]-quinolin-2-one], the IC50 fell in the range of 200 to 1000 nM.
To `COc1cc2ncc3c(c2cc1-c1cnn(C2CNC2)c1)n(-c1c(F)cncc1OC)c(=O)n3C` [compound 208, 8-[1-(Azetidin-3-yl)-1H-pyrazol-4-yl]-1-(3-fluoro-5-methoxypyridin-4-yl)-7-methoxy-3-methyl-1H,2H,3H-imidazo[4,5-c]-quinolin-2-one] belongs 1000 to 2000 nM.
Regarding `CCOc1cnc(-n2c(=O)n(C)c3cnc4cc(OC)c(-c5cnn(C)c5)cc4c32)c(F)c1` [compound 113, 1-(5-Ethoxy-3-fluoropyridin-2-yl)-7-methoxy-3-methyl-8-(1-methyl-1H-pyrazol-4-yl)-1,3-dihydroimidazo[4,5-c]-quinolin-2-one], the IC50 is less than 200 nM.
As to `COc1cc2ncc3c(c2cc1-c1cn(C)nc1C)n(-c1ncc(OCS(C)(=O)=O)cc1F)c(=O)n3C` [compound 203, 8-(1,3-Dimethyl-1H-pyrazol-4-yl)-1-(3-fluoro-5-methyl-sulfonylmethoxypyridin-2-yl)-7-methoxy-3-methyl-1,3-dihydroimidazo[4,5-c]-quinolin-2-one], the IC50 fell in the range of 200 to 1000 nM.
For `COc1cc2ncc3c(c2cc1-c1ccc2nc(C)[nH]c2c1)n(-c1cn(C)nc1C)c(=O)n3C` [compound 132, 1-(1,3-Dimethyl-1H-pyrazol-4-yl)-7-methoxy-3-methyl-8-(2-methyl-3H-benzo-imidazol-5-yl)-1,3-dihydro-imidazo[4,5-c]quinolin-2-one], the IC50 is 200 to 1000 nM.
For the compound `COc1cc2ncc3c(c2cc1-c1cnn(C)n1)n(-c1ncccc1F)c(=O)n3C` [compound 158, 1-(3-Fluoropyridin-2-yl)-7-methoxy-3-methyl-8-(2-methyl-2H-1,2,3-triazol-4-yl)-1,3-dihydroimidazo-[4,5-c]quinolin-2-one], the IC50 lay within 200 to 1000 nM.
Consider `COc1cc2ncc3c(c2cc1-c1cnc2nc(C)[nH]c2c1)n(-c1c(F)cncc1OC)c(=O)n3C` [compound 152, 1-(3-Fluoro-5-methoxy-pyridin-4-yl)-7-methoxy-3-methyl-8-(2-methyl-1H-imidazo[4,5-b]pyridin-6-yl)-1,3-dihydroimidazo[4,5-c]-quinolin-2-one], for which the IC50 was less than 200 nM.
As for `COc1cc2ncc3c(c2cc1-c1cnn(C)c1)n(-c1ccccn1)c(=O)n3C` [Compound Example 56, 7-Methoxy-3-methyl-8-(1-methyl-1H-pyrazol-4-yl)-1-pyridin-2-yl-1,3-dihydro-imidazo[4,5-c]quinolin-2-one], the IC50 is 200 to 1000 nM.
As for `COc1cc2ncc3[nH]c(=O)n(-c4ncc(F)cc4F)c3c2cc1-c1cnn(C)c1` [compound 107, 1-(3,5-Difluoropyridin-2-yl)-7-methoxy-8-(1-methyl-1H-pyrazol-4-yl)-1,3-dihydro-imidazo[4,5-c]quinolin-2-one], the IC50 lay within 200 to 1000 nM.
Turning to `CCc1cnccc1-n1c(=O)n(C)c2cnc3cc(OC)c(-c4cnn(C)c4)cc3c21` [compound 156, 1-(3-Ethylpyridin-4-yl)-7-methoxy-3-methyl-8-(1-methyl-1H-pyrazol-4-yl)-1,3-dihydroimidazo[4,5-c] quinolin-2-one], the IC50 was in the range of 200 to 1000 nM.
Take `COc1cc2ncc3c(c2cc1-c1cn(C)nn1)n(-c1cn(C)nc1C)c(=O)n3C` [Compound Example 42, 1-(1,3-Dimethyl-1H-pyrazol-4-yl)-7-methoxy-3-methyl-8-(1-methyl-1H-1,2,3-triazol-4-yl)-1,3-dihydroimidazo-[4,5-c]quinolin-2-one]: the IC50 was in the range of 200 to 1000 nM.
As to `COc1cc2ncc3c(c2cc1-c1cn(C)nn1)n(-c1c(C)cncc1F)c(=O)n3C` [compound 63, 1-(3-Fluoro-5-methylpyridin-4-yl)-7-methoxy-3-methyl-8-(1-methyl-1H-1,2,3-triazol-4-yl)-1,3-dihydroimidazo-[4,5-c]quinolin-2-one], the IC50 lay within 200 to 1000 nM.
For the compound `COc1cc2ncc3[nH]c(=O)n(-c4c(F)cncc4OC)c3c2cc1-c1cn(C)nc1C` [compound 129, 8-(1,3-Dimethyl-1H-pyrazol-4-yl)-1-(3-fluoro-5-methoxy-pyridin-4-yl)-7-methoxy-1,3-dihydroimidazo[4,5-c]-quinolin-2-one], the IC50 lay in the range of 1000 to 2000 nM.
To `COc1cc2ncc3c(c2cc1-c1cnn(C)c1)n(-c1c(F)cncc1OC(F)F)c(=O)n3C` [compound 146, 1-(3-Difluoromethoxy-5-fluoropyridin-4-yl)-7-methoxy-3-methyl-8-(1-methyl-1H-pyrazol-4-yl)-1,3-dihydroimidazo[4,5-c]-quinolin-2-one] belongs less than 200 nM; to `C=CCOc1cnc(-n2c(=O)n(C)c3cnc4cc(OC)c(-c5cnn(C)c5)cc4c32)c(F)c1` [compound 204, 1-(5-Allyloxy-3-fluoropyridin-2-yl)-7-methoxy-3-methyl-8-(1-methyl-1H-pyrazol-4-yl)-1,3-dihydroimidazo[4,5-c]-quinolin-2-one], 200 to 1000 nM.
In the case of `COc1cc2ncc3c(c2cc1-c1cnn(C)c1)n(-c1ncc(Cl)cc1F)c(=O)n3C` [compound 119, 1-(5-Chloro-3-fluoropyridin-2-yl)-7-methoxy-3-methyl-8-(1-methyl-1H-pyrazol-4-yl)-1,3-dihydroimidazo[4,5-c]-quinolin-2-one], the IC50 was less than 200 nM.
For `COc1cnc(-n2c(=O)n(C)c3cnc4cc(OC)c(-c5ccc6nc(C)[nH]c6c5)cc4c32)c(F)c1` [compound 144, 1-(3-Fluoro-5-methoxy-pyridin-2-yl)-7-methoxy-3-methyl-8-(2-methyl-3H-benzoimidazol-5-yl)-1,3-dihydroimidazo[4,5-c]-quinolin-2-one], the IC50 is 200 to 1000 nM.
Consider `COc1cc2ncc3c(c2cc1-c1cnn(C)c1)n(-c1c(F)cncc1C1CC1)c(=O)n3C` [compound 202, 1-(3-Cyclopropyl-5-fluoro-pyridin-4-yl)-7-methoxy-3-methyl-8-(1-methyl-1H-pyrazol-4-yl)-1,3-dihydro-imidazo[4,5-c]quinolin-2-one], for which the IC50 was in the range of 200 to 1000 nM.
As for `COc1cc2ncc3c(c2cc1-c1cnn(C)c1)n(-c1ccc(F)cn1)c(=O)n3C` [Compound Example 50, 1-(5-Fluoropyridin-2-yl)-7-methoxy-3-methyl-8-(1-methyl-1H-pyrazol-4-yl)-1,3-dihydroimidazo[4,5-c]-quinolin-2-one], the IC50 fell in the range of 200 to 1000 nM.
Consider `CNC(=O)c1cnc(-n2c(=O)n(C)c3cnc4cc(OC)c(-c5cn(C)nc5C)cc4c32)c(F)c1` [compound 139, 6-[8-(1,3-Dimethyl-1H-pyrazol-4-yl)-7-methoxy-3-methyl-2-oxo-2,3-dihydro-imidazo[4,5-c]quinolin-1-yl]-5-fluoro-N-methyl-nicotinamid], for which the IC50 fell in the range of 200 to 1000 nM.
Take `COc1cc2ncc3[nH]c(=O)n(-c4c(F)cncc4OC)c3c2cc1-c1cnn(C)c1` [compound 116, 1-(3-Fluoro-5-methoxy-pyridin-4-yl)-7-methoxy-8-(1-methyl-1H-pyrazol-4-yl)-1,3-dihydroimidazo[4,5-c]-quinolin-2-one]: the IC50 fell in the range of 1000 to 2000 nM.
On to `COc1cnc(-n2c(=O)n(C)c3cnc4cc(OC)c(-c5cn(C)nc5C)cc4c32)c(F)c1` [compound 106, 8-(1,3-Dimethyl-1H-pyrazol-4-yl)-1-(3-fluoro-5-methoxypyridin-2-yl)-7-methoxy-3-methyl-1,3-dihydroimidazo[4,5-c]-quinolin-2-one], for which the IC50 lay within 200 to 1000 nM.
To `COc1cc2ncc3c(c2cc1-c1cnn(C)n1)n(-c1c(F)cncc1OC)c(=O)n3C` [compound 127, 1-(3-Fluoro-5-methoxy-pyridin-4-yl)-7-methoxy-3-methyl-8-(2-methyl-2H-1,2,3-triazol-4-yl)-1,3-dihydroimidazo[4,5-c] quinolin-2-one] belongs 200 to 1000 nM; to `COc1cc2ncc3c(c2cc1-c1cnn(C)c1)n(-c1ccc2ccccc2n1)c(=O)n3C` [compound 68, 7-Methoxy-3-methyl-8-(1-methyl-1H-pyrazol-4-yl)-1-quinolin-2-yl-1,3-dihydro-imidazo[4,5-c]quinolin-2-one], 1000 to 2000 nM; to `CCc1cncc(F)c1-n1c(=O)n(C)c2cnc3cc(OC)c(-c4cnn(C)n4)cc3c21` [compound 112, 1-(3-Ethyl-5-fluoropyridin-4-yl)-7-methoxy-3-methyl-8-(2-methyl-2H-1,2,3-triazol-4-yl)-1,3-dihydroimidazo-[4,5-c]quinolin-2-one], 200 to 1000 nM.
